# Tested on: C. albicans conditional mutants (SEC14 gene under tetracycline repressible promoter)
# Assay: Murine model of systemic infection with C. albicans conditional mutants, kidney burdens
# Format: in vivo, BALB/c mice
# Settings: +DOX group (2 mg/ml in 5% sucrose drinking water), at the start of the study and at day 28; 1×10^6 CFU/mouse i.v.
# Protocol: To further validate the essential nature of the SEC14 gene, the conditional mutants of C. albicans strains (as described in Example 4, section 4.1), wherein the SEC14 gene is under the control of a tetracycline repressible promoter, may be tested to determine whether they are attenuated in an immuno-competent murine model of infection (Ghannoum, et al, 1995) as follows:
# Initially the organisms were grown in the absence of DOX, since under these conditions they would express the SEC14 gene. These organisms were then used to inoculate two groups of 12 of mice. One group wss treated with DOX, in which expression of the SEC14 gene was repressed, and the second group of mice was treated with water (control) wherein the gene continued to be expressed. The mice used were single sex BALB/c mice, Harlan, 4 weeks old and weighing between 19-22 g.
# Infective doses of C. albicans were injected into the tail vein. The inocula were from saline-washed fresh stationary phase cultures grown in NGY medium [0.1% neopeptone, 0.4% glucose, 0.1% yeast extract] for 18-24 h at 30° C. […]
# Animals were fed food and water ad libitum throughout the course of experiment. […] Differences between the effects of C. albicans with the SEC14 gene active (−DOX) or repressed (+DOX) in vivo were monitored by mouse survival, kidney burdens of viable fungi, and changes in body weight relative to baseline. […]
smiles,measurement,value
C[C@H]1c2cccc(O)c2C(=O)C2=C(O)[C@]3(O)C(=O)C(C(N)=O)=C(O)[C@@H](N(C)C)[C@@H]3[C@@H](O)[C@@H]21 [doxycycline],Kidney counts (colony forming unit counts per gram of kidney tissue),< 200 cfu/g

# Reference: patent US20060211081A1, “Sec14 as an antifungal target” (priority 2002, published 2006)
